Data from patent publication US12570612B2, “Substituted nitrogen heterocyclic compound and anesthetic effect thereof” (priority 2019, dated 2026).

Test system: Sprague-Dawley rats
Test: animal or person
Type: in vivo
Settings: LORR, up and down method, tail vein, rats; class symbols
Text: Evaluating indicator: The end point of anesthesia: LORR was used as the end point of anesthesia; General anesthesia effect: the disappearance of forepaw righting reflex in rats lasting for 30 seconds is taken as the index of general anesthesia effect; Anesthesia recovery index: the recovery of rat forepaw righting reflex was used as the index of anesthesia recovery.

Row | SMILES | ED50
1 | C[C@H](c1ccccc1)n1cnc(F)c1C(=O)COCC1CC1 [Compound C76] | ++ (++ means that the measured ED50 is in the range of 0.50-1.00 mg/kg (excluding 0.50 mg/kg, including 1.00 mg/kg))
2 | C[C@H](c1ccccc1)n1cnc(F)c1C(=O)COCC1CCC1 [Compound C70] | + (+ indicates that the measured ED50 is in the range of 0.04-0.50 mg/kg (including 0.04 and 0.50 mg/kg))
3 | CC#CCOCC(=O)c1cc(F)nn1[C@H](C)c1ccccc1 [Compound C14] | ++++ (++++ indicates that the measured ED50 is in the range of 2.00-10.00 mg/kg (excluding 2.00 mg/kg, including 6.00 mg/kg))

Same assay, conditions: Rattus norvegicus; LORR, up and down method, tail vein, rats; class symbols; read-out: ED50

Row | SMILES | ED50
4 | CCC(CC)OCC(=O)c1c(F)ncn1[C@H](C)c1ccccc1 [Compound C78] | 0.5 to 1 mg/kg
5 | C#CCOCC(=O)c1c(F)ncn1[C@H](C)c1ccccc1 [Compound C73] | 0.04 to 0.5 mg/kg
6 | C/C=C\C(=O)c1cncn1[C@H](C)c1ccccc1 [Compound C55] | 2 to 10 mg/kg
7 | CC#CCC(=O)c1cncn1[C@H](C)c1ccccc1 [Compound C57] | 2 to 10 mg/kg
8 | CCOCC(=O)c1c(F)ncn1[C@H](C)c1ccccc1 [Compound C72] | 0.04 to 0.5 mg/kg

Same assay, conditions: rats

Row | SMILES | Approximate therapeutic index
9 | CCC(CC)OCC(=O)c1c(F)ncn1[C@H](C)c1ccccc1 [Compound C78] | >14.3
10 | C[C@H](c1ccccc1)n1cncc1C(=O)COC(C)(C)C [Compound C45] | >2.2
11 | C#CCOCC(=O)c1c(F)ncn1[C@H](C)c1ccccc1 [Compound C73] | >23.4
12 | C[C@H](c1ccccc1)n1cncc1C(=O)COC1CCC1 [Compound C28] | >2.4
13 | C/C=C\C(=O)c1cncn1[C@H](C)c1ccccc1 [Compound C55] | >16.6
14 | CC#CCC(=O)c1cncn1[C@H](C)c1ccccc1 [Compound C57] | >16.6
15 | C[C@H](c1ccccc1)n1cnc(F)c1C(=O)COCC1CC1 [Compound C76] | >21.9
16 | COCC(=O)c1cncn1[C@H](C)c1ccccc1 [Compound C33] | >2.8
17 | C[C@H](c1ccccc1)n1cnc(F)c1C(=O)COCC1CCC1 [Compound C70] | >18.2
18 | CCOCC(=O)c1c(F)ncn1[C@H](C)c1ccccc1 [Compound C72] | >27.7
19 | CC#CCOCC(=O)c1cc(F)nn1[C@H](C)c1ccccc1 [Compound C14] | >6.0

Test system: Sprague-Dawley rats
Test: not given
Type: in vivo
Settings: tail vein

Row | SMILES | Minimal lethal dose
20 | CCC(CC)OCC(=O)c1c(F)ncn1[C@H](C)c1ccccc1 [Compound C78] | >11.5 mg/kg
21 | C[C@H](c1ccccc1)n1cncc1C(=O)COC(C)(C)C [Compound C45] | >10.8 mg/kg
22 | C#CCOCC(=O)c1c(F)ncn1[C@H](C)c1ccccc1 [Compound C73] | >4.0 mg/kg
23 | C[C@H](c1ccccc1)n1cncc1C(=O)COC1CCC1 [Compound C28] | >11.8 mg/kg
24 | C/C=C\C(=O)c1cncn1[C@H](C)c1ccccc1 [Compound C55] | >13.61 mg/kg
25 | CC#CCC(=O)c1cncn1[C@H](C)c1ccccc1 [Compound C57] | >13.61 mg/kg
26 | C[C@H](c1ccccc1)n1cnc(F)c1C(=O)COCC1CC1 [Compound C76] | >15.6 mg/kg
27 | COCC(=O)c1cncn1[C@H](C)c1ccccc1 [Compound C33] | >14.2 mg/kg
28 | C[C@H](c1ccccc1)n1cnc(F)c1C(=O)COCC1CCC1 [Compound C70] | >6.4 mg/kg
29 | CCOCC(=O)c1c(F)ncn1[C@H](C)c1ccccc1 [Compound C72] | >8.9 mg/kg
30 | CC#CCOCC(=O)c1cc(F)nn1[C@H](C)c1ccccc1 [Compound C14] | >14.5 mg/kg

Test system: Sprague-Dawley rats
Test: Pharmacological effect and adverse reactions under the equivalent dose (2ED50), Group C compounds
Type: in vivo
Settings: 2ED50, tail vein, rats, n=8
Text: Evaluation index: onset time: from the completion of drug injection to the disappearance of forepaw righting reflex in rats; Duration of anesthesia: the time from the disappearance of rat forepaw righting reflex to the recovery of rat forepaw righting reflex; Recovery time of anesthesia: the time from the […] to complete recovery;

Row | SMILES | Righting reflex duration | Sedation duration
31 | CCC(CC)OCC(=O)c1c(F)ncn1[C@H](C)c1ccccc1 [Compound C78] | 2.59 ± 0.99 min | 7.30 ± 1.85 min
32 | C[C@H](c1ccccc1)n1cncc1C(=O)COC(C)(C)C [Compound C45] | 3.00 ± 1.02 min | 7.74 ± 0.85 min
33 | C#CCOCC(=O)c1c(F)ncn1[C@H](C)c1ccccc1 [Compound C73] | 1.24 ± 0.56 min | 6.76 ± 1.49 min
34 | C[C@H](c1ccccc1)n1cncc1C(=O)COC1CCC1 [Compound C28] | 1.91 ± 0.65 min | 5.63 ± 0.62 min
35 | C/C=C\C(=O)c1cncn1[C@H](C)c1ccccc1 [Compound C55] | 1.83 ± 0.30 min | 6.26 ± 2.45 min
36 | CC#CCC(=O)c1cncn1[C@H](C)c1ccccc1 [Compound C57] | 1.89 ± 0.29 min | 6.12 ± 1.14 min
37 | C[C@H](c1ccccc1)n1cnc(F)c1C(=O)COCC1CC1 [Compound C76] | 1.72 ± 0.61 min | 4.32 ± 0.96 min
38 | COCC(=O)c1cncn1[C@H](C)c1ccccc1 [Compound C33] | 1.62 ± 0.85 min | 4.43 ± 0.92 min
39 | C[C@H](c1ccccc1)n1cnc(F)c1C(=O)COCC1CCC1 [Compound C70] | 1.35 ± 0.61 min | 5.30 ± 1.14 min
40 | CCOCC(=O)c1c(F)ncn1[C@H](C)c1ccccc1 [Compound C72] | 1.29 ± 0.64 min | 5.70 ± 1.51 min
41 | CC#CCOCC(=O)c1cc(F)nn1[C@H](C)c1ccccc1 [Compound C14] | 1.38 ± 0.47 min | 9.03 ± 1.58 min

Same assay, conditions: 2ED50, tail vein, rats, n=8; unit min

Row | SMILES | Onset time
42 | CC#CCC(=O)c1cncn1[C@H](C)c1ccccc1 [Compound C57] | <60 s
43 | CCOCC(=O)c1c(F)ncn1[C@H](C)c1ccccc1 [Compound C72] | <60 s
44 | CC#CCOCC(=O)c1cc(F)nn1[C@H](C)c1ccccc1 [Compound C14] | <60 s

Same assay, conditions: 2ED50, tail vein, rats, n=8; unit s

Row | SMILES | Onset time
45 | CCC(CC)OCC(=O)c1c(F)ncn1[C@H](C)c1ccccc1 [Compound C78] | <30 s
46 | C[C@H](c1ccccc1)n1cncc1C(=O)COC(C)(C)C [Compound C45] | <30 s
47 | C#CCOCC(=O)c1c(F)ncn1[C@H](C)c1ccccc1 [Compound C73] | <30 s
48 | C[C@H](c1ccccc1)n1cncc1C(=O)COC1CCC1 [Compound C28] | <30 s
49 | C/C=C\C(=O)c1cncn1[C@H](C)c1ccccc1 [Compound C55] | <30 s
50 | C[C@H](c1ccccc1)n1cnc(F)c1C(=O)COCC1CC1 [Compound C76] | <30 s
51 | COCC(=O)c1cncn1[C@H](C)c1ccccc1 [Compound C33] | <30 s
52 | C[C@H](c1ccccc1)n1cnc(F)c1C(=O)COCC1CCC1 [Compound C70] | <30 s

Same assay, conditions: equivalent dose (2ED50), number of rats of n = 8

Row | SMILES | Adverse reaction: Convulsions | Adverse reaction: Cough, broken-winded | Adverse reaction: Euphoria | Adverse reaction: Red urine | Adverse reaction: Slower breathing, Tetany convulsion | Adverse reaction: Systemic stiffness, Convulsions, Opisthotonus | Adverse reaction: Tongue stretching | Adverse reaction: Tremor | Adverse reaction: the four limbs rigidity
53 | CCC(CC)OCC(=O)c1c(F)ncn1[C@H](C)c1ccccc1 [Compound C78] | 0 | 0 | 0 | 8 | 0 | 0 | 1 | 0 | 1
54 | C[C@H](c1ccccc1)n1cncc1C(=O)COC(C)(C)C [Compound C45] | 0 | 0 | 0 | 8 | 0 | 7 | 0 | 0 | 1
55 | C#CCOCC(=O)c1c(F)ncn1[C@H](C)c1ccccc1 [Compound C73] | 0 | 0 | 0 | 8 | 0 | 2 | 0 | 0 | 1
56 | C[C@H](c1ccccc1)n1cncc1C(=O)COC1CCC1 [Compound C28] | 0 | 0 | 0 | 8 | 0 | 0 | 0 | 1 | 0
57 | C/C=C\C(=O)c1cncn1[C@H](C)c1ccccc1 [Compound C55] | 0 | 0 | 0 | 8 | 0 | 7 | 0 | 0 | 0
58 | CC#CCC(=O)c1cncn1[C@H](C)c1ccccc1 [Compound C57] | 0 | 0 | 0 | 8 | 0 | 0 | 2 | 1 | 0
59 | C[C@H](c1ccccc1)n1cnc(F)c1C(=O)COCC1CC1 [Compound C76] | 0 | 0 | 0 | 8 | 0 | 0 | 0 | 1 | 1
60 | COCC(=O)c1cncn1[C@H](C)c1ccccc1 [Compound C33] | 0 | 0 | 0 | 8 | 0 | 0 | 0 | 1 | 0
61 | C[C@H](c1ccccc1)n1cnc(F)c1C(=O)COCC1CCC1 [Compound C70] | 0 | 0 | 4 | 8 | 0 | 0 | 0 | 0 | 6
62 | CCOCC(=O)c1c(F)ncn1[C@H](C)c1ccccc1 [Compound C72] | 0 | 0 | 0 | 8 | 0 | 0 | 0 | 0 | 0
63 | CC#CCOCC(=O)c1cc(F)nn1[C@H](C)c1ccccc1 [Compound C14] | 0 | 0 | 1 | 8 | 0 | 0 | 0 | 1 | 0
